How the values were obtained:
Type in all cases: cell-based, human
AGS = experiment: Combination treatment with cisplatin or etoposide, MTT, AGS
Source text: (§1) It is well established that radiotherapy and most current forms of chemotherapy cause extensive genetic damage and induction of the p53-dependent apoptotic pathway, which determines the important role of this tumor suppressor protein in cancer therapy. HDM2, on the other hand, as a transcriptional product and negative regulator pf p53, would destabilise p53 and diminish its pro-apoptotic function. Inhibitors of the p53-HDM2 negative feedback loop (e.g. compounds disrupting the p53-HDM2 complex) are expected to synergise with cytotoxic agents for induction of p53 and subsequent apoptosis. […] Both chemotherapeutic agents were used in the concentration range of 100-0.19 μM.

H1299 = experiment: Combination treatment with cisplatin or etoposide, MTT, H1299
Source text: as §1

[1] = tested on: key proteins in the HDM2 pathway; experiment: SDS-PAGE and immunoblotting of key proteins in the HDM2 pathway
H1299 cells = experiment: Caspase activity (casp ACE assay), H1299; conditions: five times the IC50
Experimental: In more detail: (A) Cells were treated with […] [IC50] of compound 2 or cisplatinum and collected at the time points indicated. Cell lysates were prepared, the caspase activity was determined using the casp ACE assay and values were plotted on a graph. (B) Cells were treated with 5 times [IC50] of compound 2 or cisplatinum and collected at the time points indicated. AGS cells were also incubated with compound 2 in the presence of a caspase inhibitor Z-VAD.fmk. Cell lysates were prepared, the caspase activity was determined using the casp ACE assay and values were plotted on a graph.
To characterise the apoptosis-inducing properties of bisarylsulfonamides caspase ⅓ activty was measured. AGS or H1299 cells were treated with a low concentration of compound 2 or cisplatin corresponding to twice the IC50 value (FIG. 6A). Morphological changes were detected in 10-20% of cells by 72 hours corresponding to an induction of caspase activity first detected at 48 hours, increasing by 72 hours. We also treated AGS and H1299 cells with higher concentrations corresponding to five times the IC50 (FIG. 6B). In this experiment we included a […], Z-VAD.fmk to determine the caspase responsible.

[2] = 2 added 6 hours before etoposide
[3] = 2 added prior to the treatment with cisplatin

## O=[N+]([O-])c1cc(S(=O)(=O)Nc2ccc(Cl)cc2)sc1Cl [Compound 2, 5-Chloro-4-nitrothiophene-2-sulfonic acid (4-chlorophenyl)-amide]
AGS; [2]
  IC50 of etoposide, fold lower in cells pre-treated with 2: 3.5 fold
AGS; [3]
  potency increase of cisplatin: 18.5 fold
AGS; Homo sapiens, MTT, 72 hours, Table 5, read-out: IC50, agent alone
  IC50: 1.1 µM
H1299; [2]
  IC50 of etoposide, fold lower in cells pre-treated with 2: 25 fold
H1299; [3]
  potency increase of cisplatin: 16 fold
H1299; Homo sapiens, NCI-H1299, MTT, 72 hours, Table 5, read-out: IC50, agent alone
  IC50: 5.1 µM
[1]; AGS, H1299, MCF7 or SJSA1 cells, five times the anti-proliferative IC50
  HDM2 and E2F-1 protein levels: rapid reduction in HDM2 and E2F-1 levels
[1]; MCF7 cells
  JNK phosphorylation: transient induction in JNK phosphorylation
  p38 MAPK pathway induction: no clear induction of the p38 MAPK pathway
[1]; compound 2: AGS, H1299, MCF7 or SJSA1 cells, etoposide or cisplatinum: AGS or MCF7 cells
  p53 level and p53 phosphorylation at serine 15: no induction of p53 nor p53 phosphorylation at serine 15
[1]; five times IC50, 85-kDa cleavage product marker for apoptosis
  PARP cleavage / PARP levels: very rapid in H1299 cells but less so in AGS, MCF7 or SJSA1 cells
H1299 cells
  caspase activity: detected by four hours

— patent publication US20050215548A1 (Cyclacel Limited, priority 2002, published 2005)
